“Also recorded” adds a separate entry of the source. Read-outs that look alike come from different tables or passages of the source.
Columns and labels:
[1] = design: method as in guideline OPPTS 830.7570; conditions: reference substances for calibration, Tables S1–S6; ref guideline OPPTS 830.7570; cited from earlier work
[2] = design: method as in PMID 25264565; conditions: oral administration of 400 mg flupirtine, modified release dosage form once daily for 8 days; cited from earlier work
[3] = target: T1, KV7.2/3 channel (Homo sapiens, UniProt O43525+O43526); test: KV7.2/3 channel opening activity, thallium-flux FLIPR Potassium Assay in HEK-293 cells overexpressing KV7.2/3; design: Emax: dose or concentration left out as unconfirmed; conditions: for Emax: HEK293E, read-out: Efficacy; for KV7.2/3 opening activity (in words) / EC50 (required concentration to reach half‐maximal KV7.2/3 channel opening activity): HEK‐293 cells overexpressing KV7.2/3; for EC50 (required concentration to reach half‐maximal KV7.2/3 channel opening activity): mean ± SD, at least three determinations; for EC50 (required concentration to reach half‐maximal KV7.2/3 channel opening activity) / Efficacy: –[e] = inactive up to a concentration of 20 μM; for Efficacy: maximal fluorescence signal relative to flupirtine (100 %), HEK‐293
[4] = design: method as in earlier work; conditions: severe but sporadic hepatotoxic events; cited from earlier work
[5] = tested on: HEP‐G2 human hepatoma cell line; conditions: human, 24 h
[6] = Cyclic voltammetry, anodic peak potential (oxidizability); assay type: physicochemical; conditions: 0.1 M Tris‐HCl buffer pH 7.4, −0.5 to 1.0 V, sweep rate 0.1 V/s, –[b] = no oxidation observed in the specified potential range
[7] = tested on: TAMH mouse liver cell line; conditions: mouse, 24 h
[8] = target: T1, KV7.2/3 channel; design: method as in PMID 30990511; conditions: previous work; cited from earlier work
[9] = LogD7.4 estimation by HPLC-based method; assay type: physicochemical; conditions: for logD7.4 (single determination): calculated from retention time with one calibration function (A–F)
Description: The logarithm of the capacity factors of the reference substances was then plotted against the corresponding logP values taken from the mentioned guideline to obtain a calibration function. For non‐ionizable compounds like the reference substances used for calibration, logP values can be considered equivalent to the logD 7.4 values. To obtain a reference mixture, 2 mg of the reference substances were each dissolved in 1 mL of methanol, and 50 μL aliquots of each reference solution were subsequently combined. The reference mixture was measured before and after the substances to be tested, and the mean retention time from both measurements was used to calculate the calibration function. The calibration function was then used to determine the logD 7.4 values from the corresponding retention times for each substance to be tested. The compounds of interest were injected as a solution in methanol (2 mg/mL), and the retention time was determined as the mean value from two measurements.

[10] = pH 7.4, calculated from retention time with one calibration function (A–F), Table S7, read-out: logD7.4 (single determination)
[11] = pH 7.4, estimated by HPLC-based method, pH 7.4, read-out: LogD 7.4

T1 sequence (O43525 whole entry): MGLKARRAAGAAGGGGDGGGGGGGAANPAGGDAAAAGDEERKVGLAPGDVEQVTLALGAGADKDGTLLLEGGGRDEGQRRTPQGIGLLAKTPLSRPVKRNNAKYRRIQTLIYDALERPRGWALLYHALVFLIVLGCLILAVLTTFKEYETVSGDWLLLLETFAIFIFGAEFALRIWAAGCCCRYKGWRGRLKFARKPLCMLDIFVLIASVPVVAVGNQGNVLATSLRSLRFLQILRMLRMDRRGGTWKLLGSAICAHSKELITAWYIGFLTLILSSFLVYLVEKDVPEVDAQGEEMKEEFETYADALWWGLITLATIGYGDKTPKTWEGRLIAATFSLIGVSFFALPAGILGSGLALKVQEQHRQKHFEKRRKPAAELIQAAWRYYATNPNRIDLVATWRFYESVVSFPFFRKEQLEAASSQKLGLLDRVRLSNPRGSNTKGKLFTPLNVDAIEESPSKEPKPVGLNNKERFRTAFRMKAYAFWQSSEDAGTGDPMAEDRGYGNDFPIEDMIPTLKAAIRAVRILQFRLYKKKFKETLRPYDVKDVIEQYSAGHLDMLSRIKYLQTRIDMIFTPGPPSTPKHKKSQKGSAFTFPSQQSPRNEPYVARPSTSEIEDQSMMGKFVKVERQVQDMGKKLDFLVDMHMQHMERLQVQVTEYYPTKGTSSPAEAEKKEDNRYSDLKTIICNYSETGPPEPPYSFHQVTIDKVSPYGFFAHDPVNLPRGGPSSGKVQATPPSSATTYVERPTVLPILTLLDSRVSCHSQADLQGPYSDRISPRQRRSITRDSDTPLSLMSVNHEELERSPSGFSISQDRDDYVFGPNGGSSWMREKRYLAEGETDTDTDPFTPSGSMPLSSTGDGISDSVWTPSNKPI
T1 sequence (O43526 whole entry): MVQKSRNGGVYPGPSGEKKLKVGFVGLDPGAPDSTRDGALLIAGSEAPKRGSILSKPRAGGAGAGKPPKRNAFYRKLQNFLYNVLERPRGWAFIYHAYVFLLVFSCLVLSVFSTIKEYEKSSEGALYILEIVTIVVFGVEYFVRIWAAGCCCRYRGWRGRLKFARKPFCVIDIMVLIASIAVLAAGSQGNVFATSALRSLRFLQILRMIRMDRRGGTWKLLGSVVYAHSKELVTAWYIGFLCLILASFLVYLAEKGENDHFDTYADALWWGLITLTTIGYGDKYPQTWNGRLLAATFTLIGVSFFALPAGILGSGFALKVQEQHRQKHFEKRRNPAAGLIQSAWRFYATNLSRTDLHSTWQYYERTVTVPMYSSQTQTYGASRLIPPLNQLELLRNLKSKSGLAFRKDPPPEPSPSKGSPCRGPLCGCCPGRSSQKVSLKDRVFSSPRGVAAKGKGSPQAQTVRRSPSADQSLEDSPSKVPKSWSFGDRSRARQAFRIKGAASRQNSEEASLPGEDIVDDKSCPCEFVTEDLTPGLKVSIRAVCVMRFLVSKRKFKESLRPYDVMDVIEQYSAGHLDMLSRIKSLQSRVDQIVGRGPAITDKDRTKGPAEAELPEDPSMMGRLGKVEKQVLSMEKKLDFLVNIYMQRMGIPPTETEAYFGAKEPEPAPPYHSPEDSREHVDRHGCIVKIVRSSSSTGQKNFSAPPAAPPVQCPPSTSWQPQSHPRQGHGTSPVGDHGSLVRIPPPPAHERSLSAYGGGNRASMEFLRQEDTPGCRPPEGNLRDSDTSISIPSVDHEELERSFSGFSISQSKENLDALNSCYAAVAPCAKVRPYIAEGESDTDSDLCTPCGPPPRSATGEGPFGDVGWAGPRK

SMILES | Emax [3] | LD25 (concentration to reduce cell viability by 25 %) [5] | Ep.a. (anodic peak potential) [6] | LD25 (concentration to reduce cell viability by 25 %) [7] | EC50 [3] | KV7.2/3 opening activity (in words) [3] | LD50 (concentration to reduce cell viability by 50 %) [5] | logD7.4 (single determination) ([9]; Table S7) | chromatographic logD [9, 10] | chromatographic logD [9, 11] | LD50 (concentration to reduce cell viability by 50 %) [7] | other results
CCOC(=O)c1ccccc1 [Ethyl benzoate] |  |  |  |  |  |  |  |  |  |  |  | logD (Lit.) [1]: 2.6
CCOC(=O)Nc1ccc(NCc2ccc(F)cc2)nc1N [Flu, flupirtine] | 100% | 74 ± 40 µM | 306 mV | 103 ± 47 µM |  |  |  |  |  |  |  | peak plasma concentration [2]: 1.6 µM; reporting rate of hepatotoxic events [4]: 1.68 cases/100,000 patient‐years; LD25 values (range over both liver cell lines) ([7]; human): 74 to 103 µM
O=C(Oc1ccccc1)c1ccccc1 [Phenyl benzoate] |  |  |  |  |  |  |  |  |  |  |  | logD (Lit.) [1]: 3.6
CCOC(=O)Nc1ccc(NCc2ccc(F)cc2)nc1C [compound 6] |  |  |  |  |  |  |  |  |  |  |  | KV7.2/3 opening potency (in words) [8]: equipotent to flupirtine
CCOC(=O)Nc1ccc(CCc2ccc(F)cc2)nc1N [compound 7, Ethyl [2‐amino‐6‐(4‐fluorophenethyl)pyridin‐3‐yl]carbamate] |  | 27 ± 16 µM | 628 mV | 25 ± 7 µM | > 10 µM | clearly less active than flupirtine | >63 µM | 2.983 | 2.95 | 3 | >63 µM | 
CCOC(=O)Nc1ccc(C#Cc2ccccc2)nc1N [compound 21, Ethyl [2‐amino‐6‐(phenylethynyl)pyridin‐3‐yl]carbamate] |  | >125 µM | 553 mV | 63 ± 12 µM | > 20 µM |  | >125 µM | 2.983 | 2.99 | 3 | >125 µM | EC50 (required concentration to reach half‐maximal KV7.2/3 channel opening activity) [3]: –^[e]; Efficacy [3]: –^[e]
Cc1nc(CNc2ccc(F)cc2)ccc1NC(=O)OCC(C)C [compound 27, Isobutyl (6‐{[(4‐fluorophenyl)amino]methyl}‐2‐methylpyridin‐3‐yl)carbamate] | 94 ± 15% | 136 ± 38 µM | 648 mV | 76 ± 15 µM | 4.12 ± 3.95 µM |  | >250 µM | 3.408 | 3.42 | 3.4 | >250 µM | 
CCCC(=O)Nc1ccc(CNc2ccc(F)cc2)cn1 [compound 44, N ‐(5‐{[(4‐Fluorophenyl)amino]methyl}pyridin‐2‐yl)butyramide] |  |  |  |  |  |  |  |  |  |  |  | melting point: 92 °C
Cc1cc(CNc2ccc(F)cc2)ccc1NC(=O)c1ccccc1CO [compound 48, N ‐(4‐{[(4‐Fluorophenyl)amino]methyl}‐2‐methylphenyl)‐2‐(hydroxymethyl)benzamide] |  | 80 ± 7 µM | no anodic peak potential could be determined; also recorded: –^[b] | 70 ± 10 µM |  | inactive | 84 ± 6 µM | 2.899 | 2.93 | 2.9 | >125 µM | EC50 (required concentration to reach half‐maximal KV7.2/3 channel opening activity) [3]: –^[e]; Efficacy [3]: –^[e]
Cc1cc(CNc2ccc(F)cc2)ccc1NC(=O)CCn1cccn1 [compound 53, N ‐(4‐{[(4‐Fluorophenyl)amino]methyl}‐2‐methylphenyl)‐3‐(1H ‐pyrazol‐1‐yl)propanamide] | 144 ± 42% | >63 µM | no anodic peak potential could be determined; also recorded: –^[b] | >63 µM | 2.36 ± 0.543 µM | fair KV7.2/3 opening activity | >63 µM | 2.924 | 2.93 | 2.9 | >63 µM | fold decrease in potency compared to butanoylamino sidechain (35 a) ([3]; KV7.2/3 opening, ratio of EC50 values): 3.5 fold
